Reference: PMC6811774, “Potent, selective, and subunit‐dependent activation of TRPC5 channels by a xanthine derivative” (British Journal of Pharmacology, 2019)
pEC50, pIC50: −log10 of the molar value.

Molecular target: T1, TRPC5-SYFP2 (TRPC5:C5 channels) (Homo sapiens, UniProt Q9UL62)
T1 construct: expressed in transfected cells
T1 sequence (Q9UL62 1-973): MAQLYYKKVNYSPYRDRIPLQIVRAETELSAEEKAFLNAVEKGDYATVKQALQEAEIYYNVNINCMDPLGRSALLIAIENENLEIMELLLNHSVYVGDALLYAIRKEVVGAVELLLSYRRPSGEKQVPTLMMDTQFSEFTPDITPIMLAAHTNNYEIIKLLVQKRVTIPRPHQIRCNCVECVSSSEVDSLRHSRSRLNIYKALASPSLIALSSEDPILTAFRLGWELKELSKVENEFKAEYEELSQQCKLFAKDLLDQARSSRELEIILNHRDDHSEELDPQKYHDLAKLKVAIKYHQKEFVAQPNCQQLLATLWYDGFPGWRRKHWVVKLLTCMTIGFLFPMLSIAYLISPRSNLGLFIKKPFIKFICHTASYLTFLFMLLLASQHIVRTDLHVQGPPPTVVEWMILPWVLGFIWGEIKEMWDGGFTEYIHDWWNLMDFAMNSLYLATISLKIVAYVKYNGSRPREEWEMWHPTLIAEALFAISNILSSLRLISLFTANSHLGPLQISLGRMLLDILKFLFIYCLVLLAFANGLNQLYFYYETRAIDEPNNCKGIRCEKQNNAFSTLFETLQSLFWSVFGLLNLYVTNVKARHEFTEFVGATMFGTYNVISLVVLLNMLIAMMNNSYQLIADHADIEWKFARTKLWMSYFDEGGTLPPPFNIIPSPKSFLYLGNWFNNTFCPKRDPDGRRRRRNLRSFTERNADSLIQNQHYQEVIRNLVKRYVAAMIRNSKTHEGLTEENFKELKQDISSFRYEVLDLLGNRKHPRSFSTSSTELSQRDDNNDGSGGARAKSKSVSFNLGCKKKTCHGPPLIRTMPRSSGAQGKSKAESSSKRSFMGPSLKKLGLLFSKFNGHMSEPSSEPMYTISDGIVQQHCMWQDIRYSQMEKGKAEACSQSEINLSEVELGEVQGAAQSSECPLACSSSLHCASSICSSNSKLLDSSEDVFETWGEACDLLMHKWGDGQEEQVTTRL
Test: [Ca2+]i measurement (Fura-2, FlexStation) in (Tet+) HEK T-REx cells expressing hTRPC5-SYFP2
Type: cell-based
Description: To facilitate cloning of TRPC5‐SYFP2 and TRPC4‐SYFP2, a pcDNA™4/TO expression vector (ThermoFisher Scientific, Waltham, MA, USA), into which a four amino acid linker (ASAS) flanked by AgeI and SacII restriction sites had been introduced between EcoRI and XhoI restriction sites, was used (Naylor et al., 2016). Human TRPC4β was inserted between BamHI and AgeI restriction sites as described previously (Ludlow et al., 2017). Human TRPC5 (forward primer: 5′ GCTTGGTACCGCCACCATG 3′ and reverse primer: 5′ […] 3′) was inserted upstream of the linker between KpnI and AgeI restriction sites using hTRPC5/pcDNA™4/TO (Zeng et al., 2004) as a PCR template. Both constructs contained an N‐terminal Kozak sequence. SYFP2 was inserted downstream of the linker between SacII and XbaI restriction sites using pSYFP2‐C1 as a PCR template (forward primer, 5′ […] 3′; reverse primer, 5′ […] 3′). pSYFP2‐C1 was a gift from Dorus Gadella (Addgene plasmid #22878; http://n2t.net/addgene:22878; RRID:Addgene_22878; Kremers, Goedhart, van Munster, & Gadella, 2006). Plasmids were sequenced to verify identity.
HEK T‐REx™ cell line was transfected with TRPC5‐SYFP2 or TRPC4‐SYFP2 using FuGENE® HD transfection reagent. After 48 hr, cells were put under antibiotic selection using 400 μg·ml^−1 zeocin and 10 μg·ml^−1 blasticidin S (Invivogen, San Diego, California, USA). Medium changes were carried out regularly to remove dead cells. HEK T‐REx cells expressing tetracycline‐inducible human TRPC5, TRPC4–C1, and TRPC5–C1 were created as described previously (Akbulut et al., 2015; Ludlow et al., 2017; Rubaiy, Ludlow, Henrot, et al., 2017). TRPC5–C1 and TRPC4–C1 concatemers allow expression of functional channels with defined 2:2 stoichiometry that display ion permeability and current–voltage relationships distinct from those of homomeric TRPC4:C4 or TRPC5:C5 channels and consistent with those obtained upon co‐expression of TRPC1 with TRPC4 or TRPC5 (Ludlow et al., 2017; Rubaiy, Ludlow, Bon, & Beech, 2017; Rubaiy, Ludlow, Henrot, et al., 2017). Cells were cultured in DMEM‐F12 GlutaMAX (Invitrogen, Paisley, UK) containing 10% FBS (Sigma‐Aldrich, Gillingham, UK), with the addition of blasticidin (10 μg·ml^−1) and zeocin (400 μg·ml^−1) to maintain the stable incorporation of the tetracycline repressor and the channel of interest, respectively. Expression of proteins was induced by the addition of tetracycline (1 μg·ml^−1, 24 hr). Cells were maintained in a humidified incubator with 5% CO2 at 37°C. HEK 293 cells stably expressing tetracycline‐regulated human http://www.guidetopharmacology.org/GRAC/ObjectDisplayForward?objectId=494 were prepared similarly and have also been described previously (McHugh, Flemming, Xu, Perraud, & Beech, 2003). For experiments using transient co‐expression of TRPC1 and TRPC5, HEK cells at 40–60% confluency were transfected with pIRES2‐AcGFP1 and pIRES2‐DsRed‐Express2 plasmids containing human TRPC1 and TRPC5, respectively, using Lipofectamine 3000 (ThermoFisher Scientific, Yokohama, Japan). All experiments using transient expression were performed within 48 hr after transfection. A498 cells were cultured in Minimum Essential Medium containing Earle's salts (ThermoFisher Scientific, Loughborough, UK), supplemented with 10% FBS and penicillin–streptomycin (100 units per ml^−1, 100 μg·ml^−1; ThermoFisher Scientific, Loughborough, UK). CHO cells stably expressing http://www.guidetopharmacology.org/GRAC/ObjectDisplayForward?objectId=510 were maintained in Ham's Nutrient Mixture F12 (ThermoFisher Scientific, Loughborough, UK) supplemented with 10% FBS, penicillin–streptomycin, and 1 mg·ml^−1 G418 (InvivoGen, San Diego, California, USA). For experiments using hTRPC3 and hTRPC6, WT HEK 293 cells were transfected with hTRPC3 (Naylor et al., 2016) or hTRPC6 (cloned into pcDNA3) using jetPRIME® transfection reagent (VWR, Lutterworth, UK). Cells were assayed 48 hr after transfection. […]

Cn1c(=O)n(CCCO)c(=O)c2c1nc(Oc1ccc(Cl)c(OC(F)(F)F)c1)n2Cc1ccc(Cl)cc1 [AM237]
Hill slope, suppression of EA response (10 nM EA): -2.2
Effect on S1P-mediated [Ca2+]i response (0.3 to 1 nM AM237, 30 min pre-incubation, 10 μM S1P): no significant effect
Effect on [Ca2+]i in the absence of extracellular Ca2+ (0.3–300 nM, Ca2+-free SBS with 0.4 mM EGTA): did not increase
Effect on S1P-mediated activation of TRPC5:C5 (3–300 nM AM237, 30 min pre-incubation, 10 μM S1P): significantly increased
pIC50 (30 min pre-incubation, then 10 nM EA, read-out: Relative IC50, suppression of EA-mediated [Ca2+]i response): 7.89
pEC50 (Control (DMSO pretreatment), competition experiment, read-out: EC50, activation): 8.00
Effect on S1P response upon simultaneous addition (co-application of 10 μM S1P and 0.3–300 nM AM237): increases of the responses to S1P
Hill slope, activation (hTRPC5-SYFP2 concentration–response curve): 1.4
